One experiment concerns Colo205 cells. Kind of experiment: Cell-based proliferation assay for determination of GI50 values (CyQUANT). Set-up: species or system human. In short, it runs like this:
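Colo205 cells in RPMI 1640 with 5% FBS, seeded 5000/well and grown 24 h at 37 °C. Exposure to compound lasted 96 h, with growth read by CyQUANT. GI50 = concentration giving 50% growth inhibition, from dose-response curves.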

Experiment [1] deals with HDAC1 enzyme (recombinant GST-HDAC1) (Homo sapiens (Human), UniProt Q13547). Nature of the experiment: In vitro HDAC assay for determination of IC50 values (BIOMOL fluorescent-based HDAC activity assay). The class given is biochemical. The settings on record: Flur de lys substrate, 2 h room temperature, read-out: IC50 (HDAC 1). Summed up:
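Recombinant human GST-HDAC1, baculovirus-expressed in SF9 cells and glutathione-purified, tested with a fluorogenic deacetylase substrate; Fluor de Lys developer added for 10 min. Fluorescence at 360 nm excitation/460 nm emission; IC50 fitted from a concentration series.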

Where [2] appears, read: Homo sapiens, COLO 205, 96 h treatment.
The mark [3] stands for this setting: Homo sapiens, COLO 205, 96 h, 96 h treatment.

The term GI50 denotes the concentration that inhibits growth by half. High values mean less potent growth inhibition, low ones more potent growth inhibition. As usually defined, the IC50 is the point on the concentration scale where inhibition reaches its midpoint.

Sequence of HDAC1 enzyme (recombinant GST-HDAC1) (Q13547 whole entry): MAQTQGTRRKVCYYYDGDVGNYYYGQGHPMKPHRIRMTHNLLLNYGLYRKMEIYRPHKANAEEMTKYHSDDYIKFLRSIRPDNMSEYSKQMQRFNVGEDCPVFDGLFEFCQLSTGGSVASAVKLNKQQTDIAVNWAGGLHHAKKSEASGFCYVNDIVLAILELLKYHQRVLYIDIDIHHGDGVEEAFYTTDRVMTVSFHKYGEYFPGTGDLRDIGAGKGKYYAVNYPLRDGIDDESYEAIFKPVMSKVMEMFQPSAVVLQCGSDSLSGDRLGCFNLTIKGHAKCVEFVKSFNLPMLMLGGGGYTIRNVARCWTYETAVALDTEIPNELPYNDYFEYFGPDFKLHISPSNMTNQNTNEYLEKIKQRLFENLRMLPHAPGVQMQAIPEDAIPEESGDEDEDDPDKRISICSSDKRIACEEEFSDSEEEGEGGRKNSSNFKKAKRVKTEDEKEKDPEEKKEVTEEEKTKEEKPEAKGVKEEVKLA

In turn, `CCCCN(CC)Cc1c(C)nc2cc(/C=C/C(=O)NO)ccn12` [Compound 99, 3-{3-[(Butyl-ethyl-amino)-methyl]-2-methyl-imidazo[1,2-a]pyridin-7-yl}-N-hydroxy-acrylamide] had a GI50 in the experiment with Colo205 cells (setting [2]) of 180 nM. Besides, the 50% inhibitory concentration (IC50) in experiment [1] came to 30 nM.

In turn, `CCCN(CC)Cc1c(C)nc2cc(/C=C/C(=O)NO)ccn12` [Compound 100, 3-{3-[(Ethyl-propyl-amino)-methyl]-2-methyl-imidazo[1,2-a]pyridin-7-yl}-N-hydroxy-acrylamide] displayed a GI50 in the experiment with Colo205 cells (setting [3]) of 4600 nM. Moreover, the IC50 in experiment [1] was found to be 540 nM.

In turn, `CCC(CC)CN(CC)Cc1c(C)nc2cc(/C=C/C(=O)NO)ccn12` [Compound 101, 3-(3-{[Ethyl-(2-ethyl-butyl)-amino]-methyl}-2-methyl-imidazo[1,2-a]pyridin-7-yl)-N-hydroxy-acrylamide] returned a 50% growth inhibitory concentration (GI50) in the experiment on Colo205 cells (setting [2]) of 50 nM. Moreover, in experiment [1], the IC50 turned out to be 10 nM.

Take `CCCN(Cc1c(C(C)(C)C)nc2cc(/C=C/C(=O)NO)ccn12)C(C)C` [Compound 102, 3-{2-tert-Butyl-3-[(isopropyl-propyl-amino)-methyl]-imidazo[1,2-a]pyridin-7-yl}-N-hydroxy-acrylamide]: in the experiment on Colo205 cells (setting [2]), growth was halved (GI50) at 2500 nM. The half-inhibitory concentration (IC50) in experiment [1] amounted to 300 nM.

In the experiment with Colo205 cells (setting [2]), `CCN(CC)Cc1c(-c2ccccc2)nc2ccc(/C=C/C(=O)NO)cn12` [Compound 103, 3-(3-Diethylaminomethyl-2-phenyl-imidazo[1,2a]pyridin-6-yl)-N-hydroxy-acrylamide] gave a GI50 of 41000 nM. Also, in experiment [1], the IC50 was over 10000 nM.

As to `CN(Cc1c(C(C)(C)C)nc2cc(C=CC(=O)NO)ccn12)CC(C)(C)C` [Compound 104, 3-(2-tert-Butyl-3-{[(2,2-dimethyl-propyl)-methyl-amino]-methyl}-imidazo[1,2-a]pyridin-7-yl)-N-hydroxy-acrylamide], growth in the experiment with Colo205 cells (setting [2]) was halved (GI50) at 6300 nM. The IC50 in experiment [1] came out at 780 nM.

`CCN(Cc1c(-c2ccccc2)nc2cc(/C=C/C(=O)NO)ccn12)CC(F)(F)F` [Compound 105, 3-(3-{[Ethyl-(2,2,2-trifluoro-ethyl)-amino]-methyl}-2-phenyl-imidazo [1,2-a]pyridin-7-yl)-N-hydroxy-acrylamide] gave a concentration for 50% growth inhibition (GI50) in the experiment on Colo205 cells (setting [2]) of 44000 nM. In experiment [1], the half-inhibitory concentration (IC50) was 7400 nM.

Molecule `CCCCN(C)Cc1c(C(C)(C)C)nc2cc(/C=C/C(=O)NO)ccn12` [Compound 106, 3-{2-tert-Butyl-3-[(butyl-methyl-amino)-methyl]-imidazo[1,2-a]pyridin-7-yl}-N-hydroxy-acrylamide] registered a GI50 with Colo205 cells (setting [2]) of 1700 nM. In addition, in experiment [1], the IC50 is 220 nM.

In the experiment on Colo205 cells (setting [2]), `CCC(CC)CN(C)Cc1c(C(C)(C)C)nc2cc(/C=C/C(=O)NO)ccn12` [Compound 107, 3-(2-tert-Butyl-3-{[(2-ethyl-butyl)-methyl-amino]-methyl}-imidazo[1,2-a]pyridin-7-yl)-N-hydroxy-acrylamide] had a GI50 of 2300 nM. Moreover, the IC50 in experiment [1] amounted to 410 nM.

`CC(C)CCN(C)Cc1c(C(C)(C)C)nc2cc(/C=C/C(=O)NO)ccn12` [Compound 108, 3-(2-tert-Butyl-3-{[methyl-(3-methyl-butyl)-amino]-methyl}-imidazo[1,2-a]pyridin-7-yl)-N-hydroxy-acrylamide] registered a concentration for 50% growth inhibition (GI50) with Colo205 cells (setting [2]) of 900 nM. The IC50 in experiment [1] amounted to 350 nM.

`CN(CCC(C)(C)C)Cc1c(C(C)(C)C)nc2cc(/C=C/C(=O)NO)ccn12` [Compound 109, 3-(2-tert-Butyl-3-{[(3,3-dimethyl-butyl)-methyl-amino]-methyl}-imidazo[1,2-a]pyridin-7-yl)-N-hydroxy-acrylamide]: in the experiment with Colo205 cells (setting [2]), the GI50 was determined as 730 nM. Further, the concentration for half-maximal inhibition (IC50) in experiment [1] was determined as 270 nM.

The molecule `CCCN(Cc1c(C)nc2cc(C=CC(=O)NO)ccn12)CC(C)(C)C` [Compound 110, 3-(3-{[(2,2-Dimethyl-propyl)-propyl-amino]-methyl}-2-methyl-imidazo[1,2a]pyridin-7-yl)-N-hydroxy-acrylamide] yielded a GI50 in the experiment on Colo205 cells (96 h treatment) of 700 nM. Also, in experiment [1], the IC50 is 130 nM.

In turn, `CCN(Cc1c(C)nc2cc(C=CC(=O)NO)ccn12)CC(C)(C)C` [Compound 111, 3-(3-{[(2,2-Dimethyl-propyl)-ethyl-amino]-methyl}-2-methyl-imidazo[1,2a]pyridin-7-yl)-N-hydroxy-acrylamide] showed a 50% growth inhibitory concentration (GI50) in the experiment on Colo205 cells (96 h treatment) of 600 nM. Also, in experiment [1], the IC50 came out at 50 nM.

`CCCCc1nc2cc(/C=C/C(=O)NO)ccn2c1CN(CC)CC(C)C` [Compound 112, 3-{2-Butyl-3-[(ethyl-isobutyl-amino)-methyl]-imidazo[1,2-a]pyridin-7-yl}-N-hydroxy-acrylamide] returned a concentration for 50% growth inhibition (GI50) in the experiment on Colo205 cells (setting [2]) of 570 nM. The half-maximal inhibitory concentration (IC50) in experiment [1] is 90 nM.

Regarding `CCCCc1nc2cc(/C=C/C(=O)NO)ccn2c1CN(CC)CCC(C)C` [Compound 114, 3-(2-Butyl-3-{[ethyl-(3-methyl-butyl)-amino]-methyl}-imidazo[1,2-a]pyridin-7-yl)-N-hydroxy-acrylamide], the GI50 in the experiment on Colo205 cells (setting [2]) amounted to 90 nM. For the same molecule, in experiment [1], the IC50 is 20 nM.

As to `CCCCc1nc2cc(/C=C/C(=O)NO)ccn2c1CN(CC)CC(C)(C)C` [Compound 115, 3-(2-Butyl-3-{[(2,2-dimethyl-propyl)-ethyl-amino]-methyl}-imidazo[1,2-a]pyridin-7-yl)-N-hydroxy-acrylamide], the concentration for 50% growth inhibition (GI50) in the experiment on Colo205 cells (setting [2]) worked out at 950 nM. The IC50 in experiment [1] was 160 nM.

The molecule `CCCCc1nc2cc(/C=C/C(=O)NO)ccn2c1CN(CC)CC(C)CCC` (stereo not drawn) [Compound 116, 3-(2-Butyl-3-{[ethyl-(2-methyl-pentyl)-amino]-methyl}-imidazo[1,2-a]pyridin-7-yl)-N-hydroxy-acrylamide] gave a concentration for 50% growth inhibition (GI50) in the experiment with Colo205 cells (96 h treatment) of 490 nM. Further, the half-inhibitory concentration (IC50) in experiment [1] was found to be 80 nM.

For the molecule `CCCCc1nc2cc(/C=C/C(=O)NO)ccn2c1CN(CC)CCC(C)(C)C` [Compound 117, 3-(2-Butyl-3-{[(3,3-dimethyl-butyl)-ethyl-amino]-methyl}-imidazo[1,2-a]pyridin-7-yl)-N-hydroxy-acrylamide], the 50% growth inhibitory concentration (GI50) in the experiment with Colo205 cells (setting [2]) is 140 nM. Further, the half-maximal inhibitory concentration (IC50) in experiment [1] is 30 nM.

Consider `CCCCc1nc2cc(/C=C/C(=O)NO)ccn2c1CN(CC)CC(CC)CC` [Compound 118, 3-(2-Butyl-3-{[ethyl-(2-ethyl-butyl)-amino]-methyl}-imidazo[1,2-a]pyridin-7-yl)-N-hydroxy-acrylamide], for which the GI50 in the experiment with Colo205 cells (setting [2]) was found to be 390 nM. The half-maximal inhibitory concentration (IC50) in experiment [1] is 150 nM.

In the experiment with Colo205 cells (setting [2]), `CCCCc1nc2cc(/C=C/C(=O)NO)ccn2c1CN(CC)CCC(C)CC(C)(C)C` (stereo not drawn) [Compound 119, 3-(2-Butyl-3-{[ethyl-(3,55-trimethyl-hexyl)-amino]-methyl}-imidazo[1,2-a]pyridin-7-yl)-N-hydroxy-acrylamide] returned a GI50 of 530 nM. In addition, the half-inhibitory concentration (IC50) in experiment [1] was 200 nM.

In the experiment on Colo205 cells (setting [2]), `CCCCN(CC)Cc1c(-c2ccccc2)nc2cc(/C=C/C(=O)NO)ccn12` [Compound 120, 3-{3-[(Butyl-ethylamino)-methyl]-2-phenyl-imidazo[1,2-a]pyridin-7-yl}-N-hydroxy-acrylamide] came in with a GI50 of 680 nM. Further, in experiment [1], the 50% inhibitory concentration (IC50) came out at 40 nM.

Molecule `CCN(CCC(C)C)Cc1c(-c2ccccc2)nc2cc(/C=C/C(=O)NO)ccn12` [Compound 121, 3-(3-{[Ethyl-(3-methyl-butyl)-amino]-methyl}-2-phenyl-imidazo[1,2-a]pyridin-7-yl)-N-hydroxy-acrylamide] showed a GI50 with Colo205 cells (setting [2]) of 490 nM. For the same molecule, the IC50 in experiment [1] stood at 30 nM.

`CCN(CCC(C)(C)C)Cc1c(-c2ccccc2)nc2cc(/C=C/C(=O)NO)ccn12` [Compound 122, 3-(3-{[(3,3-Dimethyl-butyl)-ethyl-amino]-methyl}-2-phenyl-imidazo[1,2-a]pyridin-7-yl)-N-hydroxy-acrylamide] gave a GI50 with Colo205 cells (setting [2]) of 520 nM. The half-maximal inhibitory concentration (IC50) in experiment [1] was 50 nM.

Consider `CCCc1nc2cc(/C=C/C(=O)NO)ccn2c1CNC(C)(C)C` [Compound 123, 3-[3-(tert-Butylamino-methyl)-2-propyl-imidazo[1,2-a]pyridin-7-yl]-N-hydroxy-acrylamide], for which the GI50 in the experiment with Colo205 cells (setting [3]) worked out at 180 nM. Moreover, the IC50 in experiment [1] was 40 nM.

The molecule `CCN(CCC(C)(C)C)Cc1c(C)nc2cc(/C=C/C(=O)NO)ccn12` [Compound 125, 3-(3-{[(3,3-Dimethyl-butyl)-ethyl-amino]-methyl}-2-methyl-imidazo[1,2-a]pyridin-7-yl)-N-hydroxyacrylamide] returned a GI50 in the experiment on Colo205 cells (setting [2]) of 160 nM. The 50% inhibitory concentration (IC50) in experiment [1] stood at 50 nM.

Turning to `CCCc1nc2cc(/C=C/C(=O)NO)ccn2c1CN(CC)CCC(C)C` [Compound 126, 3-(3-{[Ethyl-(3-methyl-butyl)-amino]-methyl}-2-propyl-imidazo[1,2-a]pyridin-7-yl)-N-hydroxy-acrylamide], it took 80 nM to inhibit growth in the experiment on Colo205 cells (setting [2]) by half (GI50). Besides, the IC50 in experiment [1] is 30 nM.

For `CCCc1nc2cc(/C=C/C(=O)NO)ccn2c1CN(CC)CCC(C)(C)C` [Compound 127, 3-(3-{[(3,3-Dimethyl-butyl)-ethyl-amino]-methyl}-2-propyl-imidazo[1,2-a]pyridin-7-yl)-N-hydroxy-acrylamide], the GI50 with Colo205 cells (setting [3]) came out at 70 nM. Besides, the concentration for half-maximal inhibition (IC50) in experiment [1] turned out to be 20 nM.

As for `CCCCCc1nc2cc(/C=C/C(=O)NO)ccn2c1CNC(C)(C)C` [Compound 128, 3-[3-(tert-Butylamino-methyl)-2-pentyl-imidazo[1,2-a]pyridin-7-yl]-N-hydroxy-acrylamide], in the experiment with Colo205 cells (setting [2]), the concentration for 50% growth inhibition (GI50) worked out at 70 nM. For the same molecule, the 50% inhibitory concentration (IC50) in experiment [1] was 20 nM.

In the case of `CCCCCc1nc2cc(/C=C/C(=O)NO)ccn2c1CN(CC)CCCC` [Compound 129, 3-{3-[(Butyl-ethyl-amino)-methyl]-2-pentyl-imidazo[1,2-a]pyridin-7-yl}-N-hydroxy-acrylamide], in the experiment with Colo205 cells (setting [3]), the GI50 stood at 150 nM. In experiment [1], the concentration for half-maximal inhibition (IC50) came to 40 nM.

In the case of `CCCCCc1nc2cc(/C=C/C(=O)NO)ccn2c1CN(CC)CCC(C)C` [Compound 130, 3-(3-{[Ethyl-(3-methyl-butyl)-amino]-methyl}-2-pentyl-imidazo[1,2-a]pyridin-7-yl)-N-hydroxy-acrylamide], the GI50 in the experiment on Colo205 cells (setting [3]) is 140 nM. In experiment [1], the IC50 was found to be 30 nM.

The values are drawn from patent US8648092B2, “Imidazo[1,2-a]pyridine derivatives: preparation and pharmaceutical applications” (MEI Pharma, priority 2005, dated 2014).
